Measured values taken from ChEMBL document CHEMBL1155105, “Synthesis of N-alkyl glycine amides as potent inhibitors of leukotriene A4 hydrolase” (Bioorg Med Chem Lett, 2008).

What was measured:
[1] = biological target: T1, Leukotriene A-4 hydrolase (Homo sapiens, UniProt P09960)
T1 sequence (P09960 whole entry): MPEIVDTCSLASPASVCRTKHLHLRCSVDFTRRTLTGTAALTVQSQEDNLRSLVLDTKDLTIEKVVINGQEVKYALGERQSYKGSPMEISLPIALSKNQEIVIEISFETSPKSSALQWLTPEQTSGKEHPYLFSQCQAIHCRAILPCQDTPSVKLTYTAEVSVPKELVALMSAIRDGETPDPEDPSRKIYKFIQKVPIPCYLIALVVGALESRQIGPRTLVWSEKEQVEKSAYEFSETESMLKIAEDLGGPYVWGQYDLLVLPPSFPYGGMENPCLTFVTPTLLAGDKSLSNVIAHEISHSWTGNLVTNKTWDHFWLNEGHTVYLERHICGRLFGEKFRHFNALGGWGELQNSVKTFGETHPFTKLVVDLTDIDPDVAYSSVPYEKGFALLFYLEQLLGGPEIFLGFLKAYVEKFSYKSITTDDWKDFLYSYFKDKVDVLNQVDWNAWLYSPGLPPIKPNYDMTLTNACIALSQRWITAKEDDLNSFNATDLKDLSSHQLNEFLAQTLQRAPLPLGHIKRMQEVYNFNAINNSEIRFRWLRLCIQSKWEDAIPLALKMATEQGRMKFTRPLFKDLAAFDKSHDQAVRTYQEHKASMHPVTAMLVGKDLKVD

[2] = biological target: T1, Leukotriene A-4 hydrolase; remark: listed apart in the source
[3] = Half life in iv dosed rat; format: ADME, organism-based; conditions: in vivo
[4] = Clearance in iv dosed rat; format: ADME, organism-based; conditions: in vivo
[5] = Oral bioavailability in rat; format: ADME, organism-based; conditions: in vivo
[6] = Metabolic stability in rat microsomes assessed as compound remaining after 1 hr; format: ADME, Microsome; conditions: read-out: Stability
[7] = biological target: T1, Leukotriene A-4 hydrolase; remark: listed apart in the source

CN(CCCN(C)Cc1ccc(C(=O)O)cc1)CC(=O)Nc1ccc(OCC(O)c2ccccc2)cc1 (stereo not given)
IC50 [1]: 19 nM
IC50 [2]: 210 nM

CN(CCCN(C)Cc1ccc(C(=O)O)cc1)CC(=O)Nc1ccc(Oc2ccc(-c3ncco3)cc2)cc1
IC50 [1]: 5 nM
IC50 [2]: 60 nM

O=C(CNCCCNCc1ccc(C(=O)O)cc1)Nc1ccc(Oc2ccccc2)cc1
IC50 [1]: 370 nM
IC50 [2]: > 1000 nM

CN(CCCN(C)Cc1ccc(C(=O)O)cc1)CC(=O)Nc1ccc(Oc2ccc(Cl)cc2)cc1
IC50 [1]: 17 nM
IC50 [2]: 90 nM

CN(Cc1ccc(C(=O)O)cc1)C1CCCN(CC(=O)Nc2ccc(Oc3ccccc3)cc2)CC1 (stereo not given)
IC50 [1]: 140 nM
IC50 [2]: 220 nM

CN(CCCN(C)CC1CCC(C(=O)O)CC1)CC(=O)Nc1ccc(Oc2ccccc2)cc1 (stereo not given)
IC50 [1]: 25 nM
IC50 [2]: 430 nM

CN(CCCN(C)Cc1ccc(C(=O)O)cc1F)CC(=O)Nc1ccc(Oc2ccccc2)cc1
IC50 [1]: 7 nM
IC50 [2]: 160 nM

CN(CCCN(C)CC(=O)Nc1ccc(Oc2ccccc2)cc1)CCc1ccc(C(=O)O)cc1
IC50 [1]: 3 nM
IC50 [2]: 80 nM

CN(CCCN(C)Cc1ccc(S(N)(=O)=O)cc1)CC(=O)Nc1ccc(Oc2ccccc2)cc1
IC50 [1]: 33 nM
IC50 [2]: > 1000 nM

CN(Cc1ccc(C(=O)O)cc1)C1CCN(CC(=O)Nc2ccc(Oc3ccccc3)cc2)CC1
IC50 [1]: 490 nM
IC50 [2]: 260 nM

CN(CCCN(C)Cc1ccc(C(=O)O)cc1[N+](=O)[O-])CC(=O)Nc1ccc(Oc2ccccc2)cc1
IC50 [1]: 15 nM
IC50 [2]: 290 nM

CN(CCCN(C)Cc1ccc(C(=O)O)c(F)c1)CC(=O)Nc1ccc(Oc2ccccc2)cc1
IC50 [1]: 6 nM
IC50 [2]: 340 nM

CN(CCCN(C)Cc1ccc(C(=O)O)c(Br)c1)CC(=O)Nc1ccc(Oc2ccccc2)cc1
IC50 [1]: 10 nM
IC50 [2]: 360 nM

O=C(CN1CCCN(Cc2ccc(C(=O)O)cc2)CC1)Nc1ccc(Oc2ccccc2)cc1
IC50 [1]: 70 nM
IC50 [2]: 180 nM

CN(CC(=O)Nc1ccc(Oc2ccccc2)cc1)C[C@H]1CCCN1Cc1ccc(C(=O)O)cc1
half-life [3]: 2.6 h
clearance [4]: 28 mL/min/kg
bioavailability [5]: 45%
IC50 [1]: 7 nM
IC50 [2]: 30 nM

CN(CCCN(C)Cc1ccc(C(=O)O)cc1)CC(=O)Nc1ccc(Oc2ccc(F)cc2)cc1
IC50 [1]: 6 nM
IC50 [2]: 120 nM

CN(CCCN(C)Cc1ccccc1)CC(=O)Nc1ccc(Oc2ccccc2)cc1
remaining at 1 h [6]: < 33%
IC50 [1]: 90 nM
IC50 [2]: 350 nM

CN(CCCC(=O)O)CCCN(C)CC(=O)Nc1ccc(Oc2ccccc2)cc1
IC50 [1]: 110 nM
IC50 [2]: 1500 nM

CN(CCCCC(=O)O)CCCN(C)CC(=O)Nc1ccc(Oc2ccccc2)cc1
IC50 [1]: 18 nM
IC50 [2]: 230 nM

CN(CCCN(C)Cc1ccc(C(=O)O)cc1)CC(=O)Nc1ccc(Oc2ccccc2)cc1
remaining at 1 h [6]: > 90%
half-life [3]: 0.9 h
clearance [4]: 38 mL/min/kg
bioavailability [5]: 45%
IC50 [1]: 6 nM
IC50 [2]: 120 nM

CN(CCCN(C)Cc1ccc(C(=O)O)cc1)CC(=O)Nc1ccc(Oc2ccccc2F)cc1
IC50 [1]: 16 nM
IC50 [2]: 230 nM

CN(C)CCCN(C)CC(=O)Nc1ccc(Oc2ccccc2)cc1
remaining at 1 h [6]: < 33%
IC50 [1]: 160 nM
IC50 [2]: 135 nM

CN(CCCNCC(=O)Nc1ccc(Oc2ccccc2)cc1)Cc1ccc(C(=O)O)cc1
IC50 [1]: 330 nM
IC50 [2]: > 1000 nM

CN(CCCNCc1ccc(C(=O)O)cc1)CC(=O)Nc1ccc(Oc2ccccc2)cc1
IC50 [1]: 19 nM
IC50 [2]: 420 nM

CN(CC(=O)Nc1ccc(Oc2ccccc2)cc1)C1CCCN(Cc2ccc(C(=O)O)cc2)CC1 (stereo not given)
IC50 [1]: 160 nM
IC50 [2]: 380 nM

CN(CCN(C)Cc1ccc(C(=O)O)cc1)CC(=O)Nc1ccc(Oc2ccccc2)cc1
IC50 [1]: 15 nM
IC50 [2]: 140 nM

CN(CCCN(C)Cc1ccc(C(=O)O)o1)CC(=O)Nc1ccc(Oc2ccccc2)cc1
IC50 [1]: 28 nM
IC50 [2]: 440 nM

O=C(CN1CCN(Cc2ccc(C(=O)O)cc2)CC1)Nc1ccc(Oc2ccccc2)cc1
IC50 [1]: 1000 nM
IC50 [2]: > 1000 nM

CN(CCCN(C)Cc1ccc(C(=O)O)cc1)CC(=O)Nc1ccc(Cc2ccccc2)cc1
IC50 [1]: 3 nM
IC50 [2]: 70 nM

CN(CC(=O)Nc1ccc(Oc2ccccc2)cc1)C[C@@H]1CCCN1Cc1ccc(C(=O)O)cc1
IC50 [1]: 100 nM
IC50 [2]: 200 nM

O=C(CN1CC2CC1CN2Cc1ccc(C(=O)O)cc1)Nc1ccc(Oc2ccccc2)cc1 (stereo not given)
IC50 [1]: 44 nM
IC50 [2]: 240 nM

CN(CCCN(C)Cc1ccc(-c2nnn[nH]2)cc1)CC(=O)Nc1ccc(Oc2ccccc2)cc1
IC50 [1]: 4 nM
IC50 [2]: 250 nM

CN(Cc1ccc(C(=O)O)cc1)CC1CCCCN1CC(=O)Nc1ccc(Oc2ccccc2)cc1 (stereo in doubt; 4n)
IC50 [1]: 17 nM
IC50 [2]: 100 nM

CN(Cc1ccc(C(=O)O)cc1)CC1CCCCN1CC(=O)Nc1ccc(Oc2ccccc2)cc1 (stereo in doubt; 4o)
IC50 [1]: 16 nM
IC50 [2]: 60 nM

CN(Cc1ccc(C(=O)O)cc1)CC1CCCN1CC(=O)Nc1ccc(Oc2ccccc2)cc1 (stereo in doubt; 4r)
IC50 [1]: 26 nM
IC50 [7]: 60 nM

CN(Cc1ccc(C(=O)O)cc1)CC1CCCN1CC(=O)Nc1ccc(Oc2ccccc2)cc1 (stereo in doubt; 4s)
IC50 [1]: 17 nM
IC50 [2]: 60 nM

CN(CC(=O)Nc1ccc(Oc2ccccc2)cc1)C1CCN(Cc2ccc(C(=O)O)cc2)C1 (stereo in doubt; 4t)
IC50 [1]: 120 nM
IC50 [2]: 180 nM

CN(CC(=O)Nc1ccc(Oc2ccccc2)cc1)C1CCN(Cc2ccc(C(=O)O)cc2)C1 (stereo in doubt; 4u)
IC50 [1]: 57 nM
IC50 [2]: 220 nM
